Measured values from ChEMBL document CHEMBL3393039, “Anthranilic acid derivatives as nuclear receptor modulators--development of novel PPAR selective and dual PPAR/FXR ligands” (Bioorg Med Chem, 2015).
Values after ≈ are worked out from the molar mass of the structure shown. Active and inactive are the calls of the source. No cut-off for these calls is given here.

How the values were obtained:
[1] = biological target: T1, Peroxisome proliferator-activated receptor alpha (Homo sapiens) (UniProt Q07869); experiment: Transactivation of Gal4-tagged PPARalpha ligand binding domain (unknown origin) expressed in COS7 cells at 10 uM measured after overnight incubation by luciferase reporter gene assay; type: cell-based; conditions: COS-7
T1 sequence (whole entry): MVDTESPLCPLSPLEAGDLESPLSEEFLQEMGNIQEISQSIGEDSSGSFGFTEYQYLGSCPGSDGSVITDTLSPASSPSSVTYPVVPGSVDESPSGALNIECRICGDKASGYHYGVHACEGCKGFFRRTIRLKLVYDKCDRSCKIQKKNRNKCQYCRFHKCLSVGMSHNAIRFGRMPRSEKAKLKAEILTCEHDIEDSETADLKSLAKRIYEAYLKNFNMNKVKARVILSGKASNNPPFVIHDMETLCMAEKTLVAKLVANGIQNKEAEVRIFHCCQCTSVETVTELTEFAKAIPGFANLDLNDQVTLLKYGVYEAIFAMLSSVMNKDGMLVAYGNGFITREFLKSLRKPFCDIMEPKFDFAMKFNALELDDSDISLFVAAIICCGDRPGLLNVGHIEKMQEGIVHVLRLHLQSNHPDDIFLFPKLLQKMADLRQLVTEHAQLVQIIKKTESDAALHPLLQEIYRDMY

[2] = biological target: T2, Peroxisome proliferator-activated receptor gamma (Homo sapiens, UniProt P37231); experiment: Transactivation of Gal4-tagged PPARgamma ligand binding domain (unknown origin) expressed in COS7 cells measured after overnight incubation by luciferase reporter gene assay; type: cell-based, COS-7
T2 sequence (P37231 whole entry): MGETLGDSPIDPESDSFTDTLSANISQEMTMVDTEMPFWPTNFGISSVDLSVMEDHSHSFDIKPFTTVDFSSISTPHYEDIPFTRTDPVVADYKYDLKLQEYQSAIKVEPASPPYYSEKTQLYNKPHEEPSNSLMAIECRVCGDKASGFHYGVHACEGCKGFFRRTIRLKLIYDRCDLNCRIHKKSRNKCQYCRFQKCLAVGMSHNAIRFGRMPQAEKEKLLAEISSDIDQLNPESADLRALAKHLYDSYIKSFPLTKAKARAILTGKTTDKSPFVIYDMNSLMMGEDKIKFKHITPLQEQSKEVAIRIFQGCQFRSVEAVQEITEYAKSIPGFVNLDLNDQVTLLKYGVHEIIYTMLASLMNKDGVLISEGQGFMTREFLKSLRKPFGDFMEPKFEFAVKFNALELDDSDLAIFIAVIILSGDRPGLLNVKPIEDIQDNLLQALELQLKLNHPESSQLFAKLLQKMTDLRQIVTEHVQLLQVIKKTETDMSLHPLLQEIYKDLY

[3] = biological target: T3, Peroxisome proliferator-activated receptor gamma (Homo sapiens) (UniProt P37231); experiment: Transactivation of Gal4-tagged PPARgamma ligand binding domain (unknown origin) expressed in COS7 cells measured after overnight incubation by luciferase reporter gene assay relative to piaglitazone; type: cell-based; conditions: Chlorocebus aethiops; COS-7
T3 sequence (whole entry): T2 sequence (P37231 whole entry)

[4] = biological target: T4, Peroxisome proliferator-activated receptor delta (Homo sapiens) (UniProt Q03181); experiment: Transactivation of Gal4-tagged PPARdelta ligand binding domain (unknown origin) expressed in COS7 cells at 30 uM measured after overnight incubation by luciferase reporter gene assay; type: cell-based; conditions: COS-7
T4 sequence (whole entry): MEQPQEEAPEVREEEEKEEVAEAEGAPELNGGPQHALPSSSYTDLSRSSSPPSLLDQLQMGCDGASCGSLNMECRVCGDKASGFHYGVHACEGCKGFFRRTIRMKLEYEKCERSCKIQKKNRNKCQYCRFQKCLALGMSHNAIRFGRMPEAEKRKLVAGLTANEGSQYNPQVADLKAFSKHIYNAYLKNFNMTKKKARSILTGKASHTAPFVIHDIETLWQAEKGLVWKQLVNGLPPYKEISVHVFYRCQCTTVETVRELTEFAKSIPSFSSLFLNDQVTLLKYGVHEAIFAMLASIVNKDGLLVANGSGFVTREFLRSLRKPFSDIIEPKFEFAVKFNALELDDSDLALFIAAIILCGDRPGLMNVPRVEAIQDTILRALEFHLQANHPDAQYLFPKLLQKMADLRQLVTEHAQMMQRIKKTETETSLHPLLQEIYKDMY

[5] = biological target: T5, Bile acid receptor (Homo sapiens) (UniProt Q96RI1); experiment: Antagonist activity against human FXR expressed in human HeLa cells incubated for 24 hrs by luciferase reporter gene assay; type: cell-based
T5 sequence (whole entry): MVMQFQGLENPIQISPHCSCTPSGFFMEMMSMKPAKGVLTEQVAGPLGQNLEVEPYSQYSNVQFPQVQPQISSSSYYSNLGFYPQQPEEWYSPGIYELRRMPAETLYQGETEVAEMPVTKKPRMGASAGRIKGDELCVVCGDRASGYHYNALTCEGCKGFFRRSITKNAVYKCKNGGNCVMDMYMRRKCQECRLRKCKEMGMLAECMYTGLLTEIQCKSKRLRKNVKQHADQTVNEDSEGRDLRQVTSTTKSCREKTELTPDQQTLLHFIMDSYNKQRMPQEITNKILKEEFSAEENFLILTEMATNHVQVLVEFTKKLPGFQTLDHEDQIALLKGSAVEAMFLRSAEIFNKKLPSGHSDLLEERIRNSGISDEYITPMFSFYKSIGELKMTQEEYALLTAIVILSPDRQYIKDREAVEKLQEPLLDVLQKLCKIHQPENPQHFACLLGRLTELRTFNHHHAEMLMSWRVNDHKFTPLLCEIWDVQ

[6] = species: Homo sapiens; experiment: Selectivity index, ratio of EC50 for Gal4-tagged PPARgamma ligand binding domain (unknown origin) to EC50 for human FXR
[7] = species: Homo sapiens; experiment: Selectivity index, ratio of EC50 for Gal4-tagged PPARalpha ligand binding domain (unknown origin) to EC50 for human FXR
[8] = species: Homo sapiens; experiment: Selectivity index, ratio of EC50 for Gal4-tagged PPARdelta ligand binding domain (unknown origin) to EC50 for human FXR
[9] = biological target: T6, Bile acid receptor (Homo sapiens, UniProt Q96RI1); experiment: Transactivation of human FXR expressed in human HeLa cells incubated for 24 hrs by luciferase reporter gene assay; type: cell-based
T6 sequence (Q96RI1 whole entry): T5 sequence (whole entry)

[10] = biological target: T5, Bile acid receptor (Homo sapiens); experiment: Transactivation of human FXR expressed in human HeLa cells incubated for 24 hrs by luciferase reporter gene assay relative to GW4064; type: cell-based
[11] = Aqueous solubility of the compound; type: physicochemical; conditions: aqueous medium (not specified further)
[12] = Metabolic stability in Sprague-Dawley rat liver microsomes assessed as parent compound remaining at 10 uM measured after 15 mins in presence of NADPH regenerating system by HPLC method (reference value: 97.6 +/- 0.8%); type: ADME; conditions: read-out: Stability
[13] = Metabolic stability in Sprague-Dawley rat liver microsomes assessed as parent compound remaining at 10 uM measured after 30 mins in presence of NADPH regenerating system by HPLC method (reference value: 97.6 +/- 0.8%); type: ADME; conditions: read-out: Stability
[14] = Metabolic stability in Sprague-Dawley rat liver microsomes assessed as parent compound remaining at 10 uM measured after 60 mins in presence of NADPH regenerating system by HPLC method (reference value: 97.6 +/- 0.8%); type: ADME; conditions: read-out: Stability
[15] = biological target: PPAR delta/gamma (Homo sapiens) (UniProt P37231+Q03181); experiment: Selectivity index, ratio of EC50 for Gal4-tagged PPARgamma ligand binding domain (unknown origin) to EC50 for Gal4-tagged PPARdelta ligand binding domain (unknown origin)
[16] = biological target: T7, Peroxisome proliferator-activated receptor alpha (Homo sapiens, UniProt Q07869); experiment: Transactivation of Gal4-tagged PPARalpha ligand binding domain (unknown origin) expressed in COS7 cells measured after overnight incubation by luciferase reporter gene assay; type: cell-based, COS-7
T7 sequence (Q07869 whole entry): T1 sequence (whole entry)

[17] = biological target: T8, Peroxisome proliferator-activated receptor delta (Homo sapiens, UniProt Q03181); experiment: Transactivation of Gal4-tagged PPARdelta ligand binding domain (unknown origin) expressed in COS7 cells measured after overnight incubation by luciferase reporter gene assay; type: cell-based, COS-7
T8 sequence (Q03181 whole entry): T4 sequence (whole entry)

[18] = biological target: T4, Peroxisome proliferator-activated receptor delta (Homo sapiens); experiment: Transactivation of Gal4-tagged PPARdelta ligand binding domain (unknown origin) expressed in COS7 cells measured after overnight incubation by luciferase reporter gene assay relative to L165,041; type: cell-based; conditions: Chlorocebus aethiops; COS-7
[19] = species: Homo sapiens; experiment: Selectivity index, ratio of EC50 for Gal4-tagged PPARalpha ligand binding domain (unknown origin) to EC50 for Gal4-tagged PPARdelta ligand binding domain (unknown origin)
[20] = Antiproliferative activity against human HepG2 cells assessed as cell viability at 5 uM after 48 hrs by WST1 assay (reference value: 100%); type: cell-based; conditions: read-out: Activity
[21] = Antiproliferative activity against human HepG2 cells assessed as cell viability at 10 uM after 48 hrs by WST1 assay (reference value: 100%); type: cell-based; conditions: read-out: Activity
[22] = Antiproliferative activity against human HepG2 cells assessed as cell viability at 50 uM after 48 hrs by WST1 assay (reference value: 100%); type: cell-based; conditions: read-out: Activity
[23] = Cytotoxic activity against human HepG2 cells assessed as LDH release at 5 uM after 48 hrs by LDH release assay (reference value: 100%)
[24] = Cytotoxic activity against human HepG2 cells assessed as LDH release at 10 uM after 48 hrs by LDH release assay (reference value: 100%)
[25] = Cytotoxic activity against human HepG2 cells assessed as LDH release at 30 uM after 48 hrs by LDH release assay (reference value: 100%)

Structure (SMILES)	max activation [1]	EC50 [2]	max activation [3]	Activity [4]	EC50 [9]	max activation [10]	solubility [11]	EC50 [16]	EC50 [17]	max activation [18]	viability at 48 h, 5 µM [20]	viability at 48 h, 10 µM [21]	viability at 48 h, 50 µM [22]	LDH release (% cytotoxicity) at 48 h, 5 µM [23]	LDH release (% cytotoxicity) at 48 h, 10 µM [24]	LDH release (% cytotoxicity) at 48 h, 30 µM [25]	further results
CC(C)(C)c1ccc(C(=O)Nc2ccc(Cl)cc2C(=O)Nc2cccc(C(=O)O)c2)cc1	18%	5.4 µM	132%	inactive													inhibition [5]: Active
CC(C)(C)c1ccc(C(=O)Nc2cc(Cl)ccc2C(=O)Nc2cccc(C(=O)O)c2)cc1	44%	9 µM	256%	inactive	0.12 µM	22%											Ratio EC50 [6]: 75; Ratio EC50 [7]: 100; Ratio EC50 [8]: 100
O=C(O)Cc1cccc(NC(=O)c2ccccc2NC(=O)c2ccc3ccccc3c2)c1		18 µM	335%			20.9%	6 µM (≈ 2.55 µg/mL)	14.4 µM	1.3 µM	147%	99.5%	115%	89.3%	-2.4%	0.3%	23.3%	remaining at 0.25 h, 10 µM [12]: 91.4%; remaining at 0.5 h, 10 µM [13]: 82.3%; remaining at 1 h, 10 µM [14]: 80.5%; Ratio EC50 [15]: 13; Ratio EC50 [19]: 11
O=C(O)Cc1cccc(NC(=O)c2ccccc2NC(=O)c2ccc(-c3ccccc3)cc2)c1		2.6 µM	125%		0.7 µM	18.8%	1.7 µM (≈ 0.766 µg/mL)	3 µM	6.4 µM	175%	96.5%	79.5%	33.6%	-4.5%	-1%	72.9%	
